Measurements as given in paper PMC3509583, “Molecular Mechanisms of Pharmaceutical Drug Binding into Calsequestrin” (International Journal of Molecular Sciences, 2012).
Where two headings read alike, the source gives them in different places.

Key:
[1] = target: T1, human cardiac calsequestrin (hCASQ2) (Homo sapiens, UniProt O14958); parameters: method as in PMID 20713040; settings: cited from earlier work; for binding class based on ITC dissociation constants (Kd): hCASQ2, drugs grouped as strong, moderate or poor binders; for Kd: hCASQ2, ITC, previous studies, read-out: experimental dissociation constant (Kd)
T1 sequence (O14958 20-399): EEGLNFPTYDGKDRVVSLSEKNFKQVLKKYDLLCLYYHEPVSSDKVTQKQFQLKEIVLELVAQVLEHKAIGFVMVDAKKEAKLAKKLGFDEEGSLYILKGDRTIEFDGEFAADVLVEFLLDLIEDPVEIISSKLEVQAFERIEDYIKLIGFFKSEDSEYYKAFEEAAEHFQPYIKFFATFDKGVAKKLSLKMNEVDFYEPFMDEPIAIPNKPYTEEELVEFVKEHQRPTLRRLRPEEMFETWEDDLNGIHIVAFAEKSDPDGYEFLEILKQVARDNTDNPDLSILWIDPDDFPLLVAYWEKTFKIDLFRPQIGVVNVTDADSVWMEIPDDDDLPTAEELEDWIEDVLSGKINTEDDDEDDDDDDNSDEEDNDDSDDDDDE

[2] = target: T1, human cardiac calsequestrin (hCASQ2); assay: Isothermal titration calorimetry (ITC) of drug binding to hCASQ2, with or without caffeine; settings: hCASQ2, titration in the absence of caffeine (Supplemental Fig. 2); read-out: Dissociation constant (Kd)
Protocol: We performed ITC assays to check the predicted competition between the natural compounds (CAF, EGC, and EGCG) and tested synthetic drugs.
ITC experiments were conducted using a previous protocol, with slight modifications. The protein and drug concentrations were kept at 50 μM and 2 mM, respectively, while the CAF concentration was allowed to vary between 0 and 5 mM for different drugs. […] Origin software (Origin Lab Corp, Northampton, MA, USA) was used to fit the data to a one-site binding model via non-linear least squares regression.

SR microsomes = tested on: SR microsomes; parameters: method as in PMID 16141311, PMID 15492117; settings: concentration- and time-dependent; cited from earlier work

Structure (SMILES)	binding class based on ITC dissociation constants (Kd) [1]	Kd [2] [µM]	Kd [1] [µM]	total SR microsomal Ca2+ content (SR microsomes)
COCCc1ccc(OCC(O)CNC(C)C)cc1 (stereo not drawn) [metoprolol]	poor	–	–	–
Clc1ccc(COC(Cn2ccnc2)c2ccc(Cl)cc2Cl)c(Cl)c1 (stereo not drawn) [miconazole]	poor	–	–	–
COc1ccc([C@@H]2Sc3ccccc3N(CCN(C)C)C(=O)[C@@H]2OC(C)=O)cc1 [diltiazem]	moderate	41	–	–
CC(CN1c2ccccc2Sc2ccccc21)N(C)C (stereo not drawn) [promethazine]	moderate	–	–	–
CN(C)CCC=C1c2ccccc2CCc2ccccc21 [amitriptyline]	moderate	–	–	–
CN(C)CCCN1c2ccccc2Sc2ccc(Cl)cc21 [chlorpromazine]	poor	102	–	–
CN1CCN(CCCN2c3ccccc3Sc3ccc(C(F)(F)F)cc32)CC1 [trifluoperazine]	strong	36	18.2	significantly reduce
COc1cccc2c1C(=O)c1c(O)c3c(c(O)c1C2=O)C[C@@](O)(C(=O)CO)C[C@@H]3O[C@H]1C[C@H](N)[C@H](O)[C@H](C)O1 [doxorubicin]	strong	–	14.4	–
CCOC(=O)C1=C(COCCN)NC(C)=C(C(=O)OC)C1c1ccccc1Cl (stereo not drawn) [amlodipine]	strong	–	20.4	–
CC(C)NCC(O)c1ccc(O)c(O)c1 (stereo not drawn) [isoproterenol]	poor	–	–	–
CNCCC=C1c2ccccc2CCc2ccccc21 [nortriptyline]	moderate	–	–	–
CCCNCC(O)COc1ccccc1C(=O)CCc1ccccc1 (stereo not drawn) [propafenone]	poor	–	–	–
COc1cccc2c1C(=O)c1c(O)c3c(c(O)c1C2=O)C[C@@](O)(C(C)=O)C[C@@H]3O[C@H]1C[C@H](N)[C@H](O)[C@H](C)O1 [daunomycin]	strong	–	20.3	–
CN[C@@H](C)[C@H](O)c1ccccc1 [ephedrine]	poor	–	–	–
CSc1ccc2c(c1)N(CCC1CCCCN1C)c1ccccc1S2 (stereo not drawn) [thioridazine]	strong	22	–	–
